In patent US20170326199A1, “USE OF CASPASE-2 INHIBITORS TO TREAT AND PREVENT THE METABOLIC SYNDROME” (Duke University, priority 2015, published 2017):

Key:
[1] = system: other classes of proteases or other enzymes or receptors other than caspases; settings: selectivity; cited from earlier work
[2] = system: human caspases (including caspase-2); settings: broad-spectrum (pan-caspase) inhibitor; cited from earlier work
[3] = system: 3T3-L1 cells differentiated in adipocytes; test: Palmitate-induced lipoapoptosis (caspase 3/7 activity, ApoTox-Glo Triplex Assay) in 3T3-L1 adipocytes; assay type: cell-based; settings: palmitate 1 mM, 48 hours, inhibitor 20 uM, FIG. 4G
Method: FIG. 4G. […] Left panel: apoptosis (caspase 3/7 activity) in adipocytes treated with Palmitate 1 mM, 48 hour±caspase-2 inhibitor, VDVAD-FMK 20 uM.
3T3-L1 cells were differentiated in adipocytes as previously described (Zebisch et al., 2012), and differentiation confirmed with Oil red staining. Adipocytes were treated with palmitate 1 mM with or without caspase-2 inhibitor Z-VDVAD-FMK (R&D Systems), 20 uM, for 48 hours. Apoptosis was measured using ApoTox-Glo Triplex Assay (Promega).

[4] = target: T1, caspase-2 (Homo sapiens, UniProt P42575); settings: cell-permeable peptide; cited from earlier work
T1 sequence (P42575 1-452): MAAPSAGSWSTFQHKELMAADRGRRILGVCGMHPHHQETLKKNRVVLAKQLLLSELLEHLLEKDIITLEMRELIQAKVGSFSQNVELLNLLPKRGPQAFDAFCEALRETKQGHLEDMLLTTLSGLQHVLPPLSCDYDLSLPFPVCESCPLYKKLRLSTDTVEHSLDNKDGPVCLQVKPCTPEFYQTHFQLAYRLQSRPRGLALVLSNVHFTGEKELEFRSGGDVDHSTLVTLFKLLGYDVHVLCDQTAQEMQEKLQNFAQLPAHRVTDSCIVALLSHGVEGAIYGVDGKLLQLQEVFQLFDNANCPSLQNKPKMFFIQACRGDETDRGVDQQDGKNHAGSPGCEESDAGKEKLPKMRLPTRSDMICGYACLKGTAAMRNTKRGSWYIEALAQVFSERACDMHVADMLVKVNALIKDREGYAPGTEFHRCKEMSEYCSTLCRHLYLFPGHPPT

## C[C@H](NC(=O)C(=O)Nc1ccccc1C(C)(C)C)C(=O)N[C@@H](CC(=O)O)C(=O)COc1c(F)c(F)cc(F)c1F [IDN-6556]
[1]
  inhibition of non-caspase proteases, enzymes or receptors: no inhibition
[2]
  activity against caspases: activity against all tested human caspases (including caspase-2)

## Z-VDVAD-FMK
[3]
  effect on palmitate-induced lipoapoptosis in adipocytes: prevented

## VDVAD [available as a fluoromethylketone derivative]
[4]
  inhibition of caspase-2 activity: irreversibly inhibits
